PubChem BioAssay AID2060888 (Molecular Pharmacology Branch, DTP, NCI, 2025)

Test system: 695427-040-R-J1-PDC complex spheroid viability
Assay: Anticancer human tumor 695427-040-R-J1-PDC patient-derived colon adenocarcinoma cell line growth inhibition [RAS]
Settings: for IC50: curve of first compound; for viability, T/C: stronger effect = lower value
Summary of the method: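 Tumour cells grown as complex spheroids with HUVEC endothelial cells and mesenchymal stem cells, treated with RAS pathway inhibitor combinations. Each agent spans half-log steps from near clinical Cmax, or 10 microM where Cmax is unknown.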

[1] = second compound 0.000949 µM, first compound 0.0316 µM
[2] = second compound 0.000949 µM, first compound 0.1 µM
[3] = second compound 0.000949 µM, first compound 0.316 µM
[4] = second compound 0.000949 µM, first compound 1 µM
[5] = second compound 0.003 µM, first compound 0.0316 µM
[6] = second compound 0.003 µM, first compound 0.1 µM
[7] = second compound 0.003 µM, first compound 0.316 µM
[8] = second compound 0.003 µM, first compound 1 µM
[9] = second compound 0.00949 µM, first compound 0.0316 µM
[10] = second compound 0.00949 µM, first compound 0.1 µM
[11] = second compound 0.00949 µM, first compound 0.316 µM
[12] = second compound 0.00949 µM, first compound 1 µM
[13] = second compound 0.03 µM, first compound 0.0316 µM
[14] = second compound 0.03 µM, first compound 0.1 µM
[15] = second compound 0.03 µM, first compound 0.316 µM
[16] = second compound 0.03 µM, first compound 1 µM
[17] = second compound 0.0949 µM, first compound 0.0316 µM
[18] = second compound 0.0949 µM, first compound 0.1 µM
[19] = second compound 0.0949 µM, first compound 0.316 µM
[20] = second compound 0.0949 µM, first compound 1 µM
[21] = second compound 0.3 µM, first compound 0.0316 µM
[22] = second compound 0.3 µM, first compound 0.1 µM
[23] = second compound 0.3 µM, first compound 0.316 µM
[24] = second compound 0.3 µM, first compound 1 µM
[25] = second compound 0.000949 µM, first compound 3.16 µM
[26] = second compound 0.000949 µM, first compound 10 µM
[27] = second compound 0.003 µM, first compound 3.16 µM
[28] = second compound 0.003 µM, first compound 10 µM
[29] = second compound 0.00949 µM, first compound 3.16 µM
[30] = second compound 0.00949 µM, first compound 10 µM
[31] = second compound 0.03 µM, first compound 3.16 µM
[32] = second compound 0.03 µM, first compound 10 µM
[33] = second compound 0.0949 µM, first compound 3.16 µM
[34] = second compound 0.0949 µM, first compound 10 µM
[35] = second compound 0.3 µM, first compound 3.16 µM
[36] = second compound 0.3 µM, first compound 10 µM
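Also: viability read after seven days of drug exposure.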
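For viability, T/C in this document: 100% = DMSO vehicle control viability.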

Compound: CCN1CCN(Cc2ccc(Nc3ncc(F)c(-c4cc(F)c5nc(C)n(C(C)C)c5c4)n3)nc2)CC1 + CCn1c(-c2cccnc2C(C)OC)c2c3cc(ccc31)N1CCOC(CC(NC(=O)C(C(C)C)N(C)C(=O)C3(F)CCN(C(=O)C#CC(C)(C)N(C)C)CC3)C(=O)N3CCCC(N3)C(=O)OCC(C)(C)C2)C1
- IC50 (second compound 0.000949 µM): > 1 µM
- IC50 (second compound 0.003 µM): > 1 µM
- IC50 (second compound 0.00949 µM): > 1 µM
- IC50 (second compound 0.03 µM): > 1 µM
- IC50 (second compound 0.0949 µM): > 1 µM
- IC50 (second compound 0.3 µM): > 1 µM
- viability, T/C (second compound 0.000949 µM, first compound 0.00316 µM): 109%
- viability, T/C (second compound 0.000949 µM, first compound 0.01 µM): 88.1%
- viability, T/C [1]: 84.9%
- viability, T/C [2]: 74.2%
- viability, T/C [3]: 99.1%
- viability, T/C [4]: 87.1%
- viability, T/C (second compound 0.003 µM, first compound 0.00316 µM): 100%
- viability, T/C (second compound 0.003 µM, first compound 0.01 µM): 86.3%
- viability, T/C [5]: 86.3%
- viability, T/C [6]: 82.3%
- viability, T/C [7]: 86.2%
- viability, T/C [8]: 93%
- viability, T/C (second compound 0.00949 µM, first compound 0.00316 µM): 118%
- viability, T/C (second compound 0.00949 µM, first compound 0.01 µM): 84.3%
- viability, T/C [9]: 87.1%
- viability, T/C [10]: 88.9%
- viability, T/C [11]: 91.2%
- viability, T/C [12]: 53.9%
- viability, T/C (second compound 0.03 µM, first compound 0.00316 µM): 96.6%
- viability, T/C (second compound 0.03 µM, first compound 0.01 µM): 88.1%
- viability, T/C [13]: 74.4%
- viability, T/C [14]: 84.4%
- viability, T/C [15]: 107%
- viability, T/C [16]: 90.7%
- viability, T/C (second compound 0.0949 µM, first compound 0.00316 µM): 99.2%
- viability, T/C (second compound 0.0949 µM, first compound 0.01 µM): 79%
- viability, T/C [17]: 91.8%
- viability, T/C [18]: 87.3%
- viability, T/C [19]: 60.6%
- viability, T/C [20]: 76.6%
- viability, T/C (second compound 0.3 µM, first compound 0.00316 µM): 87.8%
- viability, T/C (second compound 0.3 µM, first compound 0.01 µM): 83.2%
- viability, T/C [21]: 84.9%
- viability, T/C [22]: 79%
- viability, T/C [23]: 65.9%
- viability, T/C [24]: 60.6%

Compound: C[C@@H](NC(=O)c1ncnc(N)c1Cl)c1ncc(C(=O)Nc2cc(C(F)(F)F)c(Cl)cn2)s1 + CCn1c(-c2cccnc2C(C)OC)c2c3cc(ccc31)N1CCOC(CC(NC(=O)C(C(C)C)N(C)C(=O)C3(F)CCN(C(=O)C#CC(C)(C)N(C)C)CC3)C(=O)N3CCCC(N3)C(=O)OCC(C)(C)C2)C1
- IC50 (second compound 0.000949 µM): > 10 µM
- IC50 (second compound 0.003 µM): > 10 µM
- IC50 (second compound 0.00949 µM): > 10 µM
- IC50 (second compound 0.03 µM): > 10 µM
- IC50 (second compound 0.0949 µM): > 10 µM
- IC50 (second compound 0.3 µM): > 10 µM
- viability, T/C [1]: 86.3%
- viability, T/C [2]: 99.1%
- viability, T/C [3]: 92.7%
- viability, T/C [4]: 106%
- viability, T/C [25]: 96.8%
- viability, T/C [26]: 85.7%
- viability, T/C [5]: 82.2%
- viability, T/C [6]: 93.6%
- viability, T/C [7]: 113%
- viability, T/C [8]: 98.3%
- viability, T/C [27]: 99.2%
- viability, T/C [28]: 68.5%
- viability, T/C [9]: 96.3%
- viability, T/C [10]: 81.6%
- viability, T/C [11]: 105%
- viability, T/C [12]: 80.2%
- viability, T/C [29]: 102%
- viability, T/C [30]: 78.1%
- viability, T/C [13]: 81%
- viability, T/C [14]: 99%
- viability, T/C [15]: 115%
- viability, T/C [16]: 97.5%
- viability, T/C [31]: 104%
- viability, T/C [32]: 82.4%
- viability, T/C [17]: 67.9%
- viability, T/C [18]: 97.3%
- viability, T/C [19]: 96.6%
- viability, T/C [20]: 104%
- viability, T/C [33]: 89.8%
- viability, T/C [34]: 67.1%
- viability, T/C [21]: 78.8%
- viability, T/C [22]: 94.4%
- viability, T/C [23]: 94.7%
- viability, T/C [24]: 98%
- viability, T/C [35]: 97.8%
- viability, T/C [36]: 67.9%

Compound: Cc1nc(N2CCC3(CC2)COC(C)C3N)c(CO)nc1Sc1ccnc(N)c1Cl (stereo unspecified) + CCn1c(-c2cccnc2C(C)OC)c2c3cc(ccc31)N1CCOC(CC(NC(=O)C(C(C)C)N(C)C(=O)C3(F)CCN(C(=O)C#CC(C)(C)N(C)C)CC3)C(=O)N3CCCC(N3)C(=O)OCC(C)(C)C2)C1
- IC50 (second compound 0.000949 µM): > 10 µM
- IC50 (second compound 0.003 µM): > 10 µM
- IC50 (second compound 0.00949 µM): > 10 µM
- IC50 (second compound 0.03 µM): > 10 µM
- IC50 (second compound 0.0949 µM): > 10 µM
- IC50 (second compound 0.3 µM): 2.82 µM
- viability, T/C [1]: 84.9%
- viability, T/C [2]: 93.2%
- viability, T/C [3]: 75.4%
- viability, T/C [4]: 64.3%
- viability, T/C [25]: 60.4%
- viability, T/C [26]: 61.3%
- viability, T/C [5]: 94.2%
- viability, T/C [6]: 70.6%
- viability, T/C [7]: 71.4%
- viability, T/C [8]: 63.2%
- viability, T/C [27]: 67.1%
- viability, T/C [28]: 47.3%
- viability, T/C [9]: 104%
- viability, T/C [10]: 82%
- viability, T/C [11]: 83.9%
- viability, T/C [12]: 57.8%
- viability, T/C [29]: 67.1%
- viability, T/C [30]: 49.3%
- viability, T/C [13]: 75%
- viability, T/C [14]: 85.8%
- viability, T/C [15]: 63%
- viability, T/C [16]: 63.8%
- viability, T/C [31]: 65.5%
- viability, T/C [32]: 53.4%
- viability, T/C [17]: 78.2%
- viability, T/C [18]: 83.7%
- viability, T/C [19]: 74%
- viability, T/C [20]: 68.1%
- viability, T/C [33]: 63%
- viability, T/C [34]: 52.7%
- viability, T/C [21]: 85.2%
- viability, T/C [22]: 70.9%
- viability, T/C [23]: 70.5%
- viability, T/C [24]: 51.4%
- viability, T/C [35]: 51.4%
- viability, T/C [36]: 43.5%
